Article PMC5996347, “2-Mercapto-Quinazolinones as Inhibitors of Type II NADH Dehydrogenase and Mycobacterium tuberculosis: Structure–Activity Relationships, Mechanism of Action and Absorption, Distribution, Metabolism, and Excretion Characterization” (ACS Infectious Diseases, 2018)
Converted amounts (≈) assume the structure as drawn.

Experiments:
[1] = Calculated properties (StarDrop)
[2] = test system: ndhA mutant; assay type: cell-based; conditions: results not shown
[3] = test system: M. tuberculosis H37Rv; test: H37Rv MIC in GAST medium; assay type: cell-based, Mycobacterium tuberculosis; conditions: Mycobacterium tuberculosis, H37RV
[4] = test system: M. tuberculosis H37Rv; test: microbe, parasite or virus in culture; assay type: cell-based; conditions: Mycobacterium tuberculosis
[5] = physchem; assay type: physicochemical; conditions: water, kinetic from dmso stock, Kinetic solubility
Procedure: The aqueous solubility of the test compounds was measured using laser nephelometry. Compounds were subject to serial dilution from 10 to 0.5 mM in DMSO. An aliquot was then mixed with Milli-Q water to obtain an aqueous dilution plate with a final concentration range of 250–12 μM, with a final DMSO concentration of 2.5%. Triplicate aliquots were transferred to a flat bottomed polystyrene plate which was immediately read on the NEPHELOstar (BMG Lab Technologies). The amount of laser scatter caused by insoluble particulates (relative nephelometry units, RNU) was plotted against compound concentration using a segmental regression fit, with the point of inflection being quoted as the compounds aqueous solubility (μM).

[6] = test system: wild-type MTb H37Rv; test: CFU after 7 days of treatment, wild-type; assay type: cell-based, Mycobacterium tuberculosis; conditions: treatment at MIC concentrations
Procedure: Figure 4 Mtb lacking the alternative type II NADH dehydrogenase encoded by ndhA was more susceptible to compound 1. Colony-forming units (CFU) after 7 days of treatment as compared to CFU at start of drug treatment (inoculum). Unpaired t test comparison between WT and ΔndhA at 0.5 μM compound 1: two-tailed P-value = 0.0023.

[7] = test system: piniBAC reporter strain; assay type: cell-based, Mycobacterium tuberculosis; conditions: upregulation of iniBAC promoter

With `O=C(CSc1nc2ccccc2c(=O)[nH]1)NC1CCCCC1` [Compound 1, N-Cyclohexyl-2-((4-oxo-3,4-dihydroquinazolin-2-yl)thio)acetamide] the PFI [1] was 4.7, the “MIC to ndhA mutant strain compared with WT” value [2] was “indistinguishable from WT cells” and the MIC ([3]; read-out: GAST MIC) was 0.3 µM. For the same molecule, the MIC ([3]; read-out: GAST MIC in ng/mL) was 95 ng/mL, the MIC ([4]; read-out: 7H9-ADC MIC) was 0.6 µM and the MIC ([4]; read-out: 7H9-ADC MIC in ng/mL) was 190 ng/mL. For the same molecule, the solubility kinetic [5] was 83 µM (≈ 26.3 µg/mL), the “Growth of wild-type MTb H37Rv over 7 days” value [6] was “could not fully suppress growth” and the pini-LUC reporter [7] was “Not likely cell wall inhibitor”.
